Measurements taken from US20250109165A1, “CYCLOPHILIN INHIBITORS AND USES THEREOF” (The Broad Institute, Inc., priority 2022, published 2025).

Experiments:
[1] = system: A549, HeLa, HEK293T, HepG2, and MEFs; test: Cellular esterase activity on ester pro-drug Cy5 derivatives; format: in vitro ADME, human and mouse; details: 6 μM, 48 hours (36 hours for HepG2)
Experimental: Cellular esterase activity on ester pro-drug Cy5 derivatives of CypD inhibitors. Into 96-well clear, flat-bottom TC-treated plates, cells were seeded in DMEM supplemented with 10% FBS for HEK293T, HeLa, and MEFs, F-12K supplemented with 10% FBS for A549, or MEM supplemented with 10% FBS for HepG2, 24 hours prior at a density where wells were ˜70% confluent at time of experiment. Media was removed and cells were incubated with 100 μL of mixture containing each Cy5-conjugated compound (6 μM) in their respective media at 1% DMSO for 48 hours (36 hours for HepG2) at 37° C. at 5% CO2. Supernatant was removed, and cells were washed 2 times with 100 μL of PBS pH 7.4 (Gibco). Cells were then lysed for 15 minutes with 30 μL of 10 mM Tris-HCl pH 8.0 buffer containing 0.05% SDS. Lysates were diluted with 100 μL acetonitrile and filtered. Lysates were analyzed by LC-MS at Harvard's Center for Mass Spectroscopy. Di-ester, mono-ester, and di-acid abundances were quantified by total ion count of the primary isotope, and the three compounds were summed and each one expressed as a fraction of the total sum.

CypD [2] = biological target: T1, CypD (Homo sapiens, UniProt P30405); test: Chymotrypsin coupled prolyl-isomerase assay; format: biochemical
T1 construct: PPIF (UniProtKB Entry P30405: res 45-207); made in house; host or cells: E. coli BL21(DE3)
Experimental: (§1) IC50 values were calculated to be the value at which 50% inhibition was achieved on each compound's non-linear regression fitted curve.

[3] = biological target: T2, human carboxylesterase (CES1) (Homo sapiens, UniProt P23141); test: In vitro esterase activity on ester pro-drug Cy5 derivatives; format: in vitro ADME; details: 0.25 μM CES1, 37° C., 8 hours
T2 sequence (P23141 18-567): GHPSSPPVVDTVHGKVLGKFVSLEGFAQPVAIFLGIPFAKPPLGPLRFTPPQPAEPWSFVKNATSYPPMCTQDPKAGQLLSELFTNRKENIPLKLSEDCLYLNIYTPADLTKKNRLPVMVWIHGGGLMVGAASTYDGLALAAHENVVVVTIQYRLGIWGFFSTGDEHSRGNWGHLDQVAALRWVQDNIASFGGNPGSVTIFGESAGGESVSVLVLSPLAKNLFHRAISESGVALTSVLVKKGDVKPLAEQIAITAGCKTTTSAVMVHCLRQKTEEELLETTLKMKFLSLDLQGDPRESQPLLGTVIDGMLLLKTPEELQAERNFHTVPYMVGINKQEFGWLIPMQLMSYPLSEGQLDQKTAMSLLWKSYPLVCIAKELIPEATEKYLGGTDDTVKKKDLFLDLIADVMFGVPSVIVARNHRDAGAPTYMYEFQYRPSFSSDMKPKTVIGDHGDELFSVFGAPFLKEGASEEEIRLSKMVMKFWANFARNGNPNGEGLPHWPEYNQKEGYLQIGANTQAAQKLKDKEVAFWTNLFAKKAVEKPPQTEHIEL
Experimental: In vitro esterase activity on ester pro-drug Cy5 derivatives of CypD inhibitors. Into PCR tubes, ester compound (6 μM) and either buffer only, CES1 (0.25 μM), or CES2 (0.25 μM) was diluted in 100 mM Tris-HCl buffer, pH 7.4, with a final DMSO concentration of 1%. Samples were maintained on a PCR block at 37° C. for 8 hours. After incubation, samples were diluted with 20 μL acetonitrile and analyzed by LC-MS at Harvard's Center for Mass Spectroscopy. Di-ester, mono-ester, and di-acid abundances were quantified by total ion count of the primary isotope, and the three compounds were summed and each one expressed as a fraction of the total sum.

HeLa cells = test: Fluorescence microscopy on HeLa cells; format: cell-based, human; details: Cy5 labeled compound 6 μM
In short: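 HeLa cells in DMEM with 10% FBS, seeded 24 h earlier to ~80% confluence, were stained for 1 h at 37 °C with 6 µM Cy5-labelled compound in HEPES-buffered Krebs-Ringer, pH 7.2. Hoechst 33342 and MitoTracker Green were then added for 15 min. After washing, live cells were imaged in Alexa 488, Alexa 647 and Hoechst channels.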

cyclophilins = test: Prolyl-isomerase inhibition screen on cyclophilins and cyclophilin mutants; format: biochemical, human
Experimental: as §1

CypD [4] = test: Chymotrypsin coupled prolyl-isomerase assay; format: biochemical, human; details: CypD mutants K118E and R124A
Experimental: as §1

CypD R124A = biological target: T3, CypD R124A (Homo sapiens, UniProt P30405, R124A); test: Chymotrypsin coupled prolyl-isomerase assay; format: biochemical; details: CypD R124A mutant; read-out: IC50^CypDR124A
T3 construct: made in house; host or cells: E. coli BL21(DE3)
Experimental: as §1

CypD K118E/R124A = biological target: T4, CypD K118E/R124A (Homo sapiens, UniProt P30405, K118E/R124A); test: Chymotrypsin coupled prolyl-isomerase assay; format: biochemical
T4 construct: made in house; host or cells: E. coli BL21(DE3)
Experimental: as §1

CypD K118E = biological target: T5, CypD K118E (Homo sapiens, UniProt P30405, K118E); test: Chymotrypsin coupled prolyl-isomerase assay; format: biochemical; details: CypD K118E mutant; read-out: IC50^CypDK118E
T5 construct: made in house; host or cells: E. coli BL21(DE3)
Experimental: as §1

T1 sequence (P30405 45-207): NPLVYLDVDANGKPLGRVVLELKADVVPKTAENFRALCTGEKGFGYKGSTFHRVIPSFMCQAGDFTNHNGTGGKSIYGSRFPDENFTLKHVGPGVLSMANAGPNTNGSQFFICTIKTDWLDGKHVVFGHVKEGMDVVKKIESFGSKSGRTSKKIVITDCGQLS
T4 sequence (P30405 45-207 K118E/R124A): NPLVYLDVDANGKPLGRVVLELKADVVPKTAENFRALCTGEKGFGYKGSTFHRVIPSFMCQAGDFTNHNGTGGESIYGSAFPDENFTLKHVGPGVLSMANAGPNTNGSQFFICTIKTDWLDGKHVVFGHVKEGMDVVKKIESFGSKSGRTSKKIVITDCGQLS
T3 sequence (P30405 45-207 R124A): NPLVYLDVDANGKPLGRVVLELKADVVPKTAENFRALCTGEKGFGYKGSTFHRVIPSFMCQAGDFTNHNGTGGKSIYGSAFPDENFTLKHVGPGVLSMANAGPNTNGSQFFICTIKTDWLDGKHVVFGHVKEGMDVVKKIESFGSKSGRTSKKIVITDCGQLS
T5 sequence (P30405 45-207 K118E): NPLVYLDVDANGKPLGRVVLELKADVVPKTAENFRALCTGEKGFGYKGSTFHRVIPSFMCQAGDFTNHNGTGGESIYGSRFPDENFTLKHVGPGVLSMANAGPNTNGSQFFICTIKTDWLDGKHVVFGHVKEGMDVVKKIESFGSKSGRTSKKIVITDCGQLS

SMILES: CCOC(=O)C(Cc1ccc(-c2ccc(C[C@H]3NC(=O)[C@@]4(Cc5ccccc5)CCCN(C4)C(=O)/C=C/C(=O)NCC[C@H](C(=O)NCCNC(=O)CCCCCN4\C(=C/C=C/C=C/C5=[N+](C)c6ccccc6C5(C)C)C(C)(C)c5ccccc54)NC(=O)Cc4ccccc4CNC3=O)cc2)cc1)C(=O)OCC [*B52-Et-Cy5]
- intracellular conversion to di-acid by endogenous esterases [1]: readily converted to the corresponding di-acid
- CypD prolyl-isomerase inhibition (in words) (CypD [2]): did not potently inhibit
- hydrolysis of ester prodrug by CES1 [3]: hydrolyzed to their active dicarboxylate forms
- mitochondrial localization (overlap with Mitotracker Green) (HeLa cells): good mitochondrial localization
- plasma membrane / mammalian cell permeability (HeLa cells): Strong mammalian cell permeability and mitochondrial localization

SMILES: NCCCc1ccc(-c2ccc(C[C@@H]3NC(=O)[C@]4(Cc5ccccc5)CCCN(C4)C(=O)/C=C/C(=O)NCC[C@@H](C(=O)NCCOCCN)NC(=O)Cc4ccccc4CNC3=O)cc2)cc1 [Compound B32]
- inhibition of cyclophilins tested (in words) (cyclophilins): overall poor potency for each cyclophilin
- inhibition potency improvement compared to wild-type CypD (CypD [4]): 5- to 6 fold
- IC50 (CypD R124A): 700 nM
- preference for CypD K118E/R124A over the nearest cyclophilin, PPWD1 (CypD K118E/R124A): at least 13 fold
- improvement compared to wild-type CypD (CypD K118E/R124A; CypD K118E/R124A): 100 fold
- IC50 (CypD K118E/R124A; CypD double mutant, read-out: IC50^CypDK11E/R124A): 60 nM
- IC50 (CypD K118E): 1100 nM
- reduction in CypD potency (CypD [2]; on inserting an amine with a net positive charge): > 1,000 fold
- IC50 (CypD [2]; wild-type CypD): 6000 nM
